# Measurements: patent publication US8435939B2, “Polypeptide anti-HIV agent containing the same” (priority 2000, dated 2013)
# Like-named read-outs stand apart in the source and are kept apart here. Where a SMILES comes first, the peptide text is derived from it. Bridges are numbered along the chain shown (N, C = ends). [ ]: non-standard residue; d: D form. 2Nal = N[C@@H](Cc1ccc2ccccc2c1)C(=O)O; Cit = NC(=O)NCCC[C@H](N)C(=O)O
# What was measured:
# Format in all cases: cell-based
# HIV-1 (IIIB) strain = experiment: Anti-HIV activity: inhibition of MT-4 cell death by HIV infection (MTT method); conditions: for EC50: MT-4 CD4+ T cells infected by HIV-1 (IIIB), 37° C., 5 days, MTT, average of at least three measurements, read-out: EC50 (concentration where MT-4 cell death by HIV infection is inhibited by 50%)
# Protocol: (§1) HIV-1 (IIIB) strain obtained from MOLT/HIV-1 (IIIB) cell previously infected by HIV-1 was used. The polypeptide of the present invention was added to MT-4 CD4^+ T cells infected by HIV in various kinds of concentrations, and a number of living cells after culturing at 37° C. for 5 days was determined by using a 3′-(4,5-dimethylthiazol-2-yl)-2,5-diphenyltetrazolinium bromide (MTT) method. Anti-HIV activity is shown by a concentration (EC50 value), where MT-4 cell death by HIV infection is inhibited by 50%. Cytotoxicity of the peptide according to the present invention was shown by a 50% survival concentration (Test I: CC50 value) by culturing virus-uninfected MT-4 cells with the polypeptide according to the present invention in various concentrations, and determining a number of living cells by the MTT method. Moreover, a number of living cells of human peripheral blood mononuclear cells (monocyte) (PBMC) was determined by trypan blue dyeing method, and shown by a 50% survival concentration (Test II: CC50 value). Respective ratios of the CC50 value and the EC50 value were shown as a selective index (SI). Obtained values were summarized in Table 3 using the conventionally known polypeptides T134 and T140, and an anti-HIV compound: 3′-azido-2′,3′-dideoxythymidine (AZT) used as a medicine as a control anti-HIV agent.
# [1] = Cytotoxicity Test I: virus-uninfected MT-4 cells, MTT method; conditions: human, virus-uninfected MT-4 cells, MTT method, read-out: CC50 (Test I), 50% survival concentration
# Protocol: as §1
# [2] = test system: virus-uninfected MT-4 cells; experiment: as above; conditions: for SI: CC50 (Test I)/EC50: selective index, MT-4 CC50 over anti-HIV EC50; for cytotoxicity in words, compared with conventional T134/T140: conclusion drawn from Table 3
# Protocol: as §1
# [3] = Cytotoxicity Test II: human PBMC, trypan blue dyeing method; conditions: human PBMC, trypan blue dyeing method, read-out: CC50 (Test II), 50% survival concentration
# [4] = test system: human peripheral blood mononuclear cells (PBMC); experiment: as above; conditions: selective index, PBMC CC50 over anti-HIV EC50
SMILES,"EC50 (HIV-1 (IIIB) strain; Human immunodeficiency virus 1, MT4, 120 h)",CC50 [1],SI: CC50 (Test I)/EC50 [2],CC50 ([3]; peripheral blood mononuclear cells (PBMC)),SI: CC50 (Test II)/EC50 [4],CC50 ([1]; MT-4 cells (virus-uninfected)),CC50 [3],EC50 (HIV-1 (IIIB) strain),"anti-HIV activity in words, compared with T140 (HIV-1 (IIIB) strain; conclusion drawn from Table 3)","cytotoxicity in words, compared with conventional T134/T140 [2]"
"Cc1cn([C@H]2C[C@H](N=[N+]=[N-])[C@@H](CO)O2)c(=O)[nH]c1=O [AZT, 3′-azido-2′,3′-dideoxythymidine, reference compound]",0.048 µM,190 µM,4000,< 20 µM,<410,,,,,
"NCCCC[C@@H]1NC(=O)[C@H](CCCN=C(N)N)NC(=O)[C@H](Cc2ccc(O)cc2)NC(=O)[C@@H](NC(=O)[C@H](Cc2c[nH]c3ccccc23)NC(=O)[C@H](CCCN=C(N)N)NC(=O)[C@@H](N)CCCN=C(N)N)CSSC[C@@H](C(=O)N[C@@H](CCCN=C(N)N)C(=O)O)NC(=O)[C@H](CCCNC(N)=O)NC(=O)[C@H](CCCN=C(N)N)NC(=O)[C@H](Cc2ccc(O)cc2)NC(=O)[C@@H]2CCCN2C(=O)[C@@H](CCCCN)NC1=O [Compound T134, H-Arg-Arg-Trp-Cys-Tyr-Arg-Lys-DLys-Pro-Tyr-Arg-Cit-Cys-Arg-OH, reference compound] (H-RRWCYRK[dK]PYR[Cit]CR-OH; disulfide 4-13)",,,>>120,,23000,> 1 µM,190 µM,,,
"NCCCC[C@@H]1NC(=O)[C@H](CCCN=C(N)N)NC(=O)[C@H](Cc2ccc(O)cc2)NC(=O)[C@@H](NC(=O)[C@H](Cc2ccc3ccccc3c2)NC(=O)[C@H](CCCN=C(N)N)NC(=O)[C@@H](N)CCCN=C(N)N)CSSC[C@@H](C(=O)N[C@@H](CCCN=C(N)N)C(=O)O)NC(=O)[C@H](CCCNC(N)=O)NC(=O)[C@H](CCCN=C(N)N)NC(=O)[C@H](Cc2ccc(O)cc2)NC(=O)[C@@H]2CCCN2C(=O)[C@@H](CCCNC(N)=O)NC1=O [TC14005, H-Arg-Arg-NaI-Cys-Tyr-Arg-Lys-DCit-Pro-Tyr-Arg-Cit-Cys-Arg-OH]",,,>20000,,69000,> 80 µM,280 µM,0.004 µM,substantially the same anti-HIV activity as that of the conventionally known T140,cytotoxicity is markedly lowered
"N=C(N)NCCC[C@H](NC(=O)[C@@H]1CSSC[C@H](NC(=O)[C@H](Cc2ccc3ccccc3c2)NC(=O)[C@H](CCCNC(=N)N)NC(=O)[C@@H](N)CCCNC(=N)N)C(=O)N[C@@H](Cc2ccc(O)cc2)C(=O)N[C@@H](CCCNC(N)=O)C(=O)N[C@@H](CCCCN)C(=O)N[C@H](CCCNC(N)=O)C(=O)N2CCC[C@H]2C(=O)N[C@@H](Cc2ccc(O)cc2)C(=O)N[C@@H](CCCNC(=N)N)C(=O)N[C@@H](CCCNC(N)=O)C(=O)N1)C(=O)O [TC14011, H-Arg-Arg-Nal-Cys-Tyr-Cit-Lys-DCit-Pro-Tyr-Arg-Cit-Cys-Arg-OH]",,,>200000,,,> 100 µM,,0.0005 µM,,lowered cytotoxicity
"NCCCC[C@@H]1NC(=O)[C@H](CCCN=C(N)N)NC(=O)[C@H](Cc2ccc(O)cc2)NC(=O)[C@@H](NC(=O)[C@H](Cc2ccc3ccccc3c2)NC(=O)[C@H](CCCN=C(N)N)NC(=O)[C@@H](N)CCCN=C(N)N)CSSC[C@@H](C(=O)N[C@@H](CCCN=C(N)N)C(=O)O)NC(=O)[C@H](CCCNC(N)=O)NC(=O)[C@H](CCCNC(N)=O)NC(=O)[C@H](Cc2ccc(O)cc2)NC(=O)[C@@H]2CCCN2C(=O)[C@@H](CCCCN)NC1=O [TC14006, H-Arg-Arg-Nal-Cys-Tyr-Arg-Lys-DLys-Pro-Tyr-Cit-Cit-Cys-Arg-OH] (H-RR[2Nal]CYRK[dK]PY[Cit][Cit]CR-OH; disulfide 4-13)",,,>5300,,20000,> 80 µM,310 µM,,,
"N=C(N)NCCC[C@H](NC(=O)[C@@H]1CSSC[C@H](NC(=O)[C@H](Cc2ccc3ccccc3c2)NC(=O)[C@H](CCCNC(=N)N)NC(=O)[C@@H](N)CCCNC(N)=O)C(=O)N[C@@H](Cc2ccc(O)cc2)C(=O)N[C@@H](CCCNC(=N)N)C(=O)N[C@@H](CCCCN)C(=O)N[C@H](CCCNC(N)=O)C(=O)N2CCC[C@H]2C(=O)N[C@@H](Cc2ccc(O)cc2)C(=O)N[C@@H](CCCNC(=N)N)C(=O)N[C@@H](CCCNC(N)=O)C(=O)N1)C(N)=O [TC14018, H-Cit-Arg-Nal-Cys-Tyr-Arg-Lys-DCit-Pro-Tyr-Arg-Cit-Cys-Arg-NH2]",,,>83000,,,> 100 µM,,0.0012 µM,,lowered cytotoxicity
"N=C(N)NCCC[C@H](NC(=O)[C@@H]1CSSC[C@H](NC(=O)[C@H](Cc2ccc3ccccc3c2)NC(=O)[C@H](CCCNC(=N)N)NC(=O)[C@@H](N)CCCNC(=N)N)C(=O)N[C@@H](Cc2ccc(O)cc2)C(=O)N[C@@H](CCCNC(=N)N)C(=O)N[C@@H](CCCCN)C(=O)N[C@H](CCCNC(N)=O)C(=O)N2CCC[C@H]2C(=O)N[C@@H](Cc2ccc(O)cc2)C(=O)N[C@@H](CCCNC(=N)N)C(=O)N[C@@H](CCCNC(N)=O)C(=O)N1)C(N)=O [TN14005, H-Arg-Arg-Nal-Cys-Tyr-Arg-Lys-DCit-Pro-Tyr-Arg-Cit-Cys-Arg-NH2]",,,>21000,,,> 100 µM,,0.0046 µM,,cytotoxicity is markedly lowered
"NCCCC[C@@H]1NC(=O)[C@H](CCCNC(N)=O)NC(=O)[C@H](Cc2ccc(O)cc2)NC(=O)[C@@H](NC(=O)[C@H](Cc2ccc3ccccc3c2)NC(=O)[C@H](CCCN=C(N)N)NC(=O)[C@@H](N)CCCN=C(N)N)CSSC[C@@H](C(=O)N[C@@H](CCCN=C(N)N)C(=O)O)NC(=O)[C@H](CCCNC(N)=O)NC(=O)[C@H](CCCN=C(N)N)NC(=O)[C@H](Cc2ccc(O)cc2)NC(=O)[C@@H]2CCCN2C(=O)[C@@H](CCCCN)NC1=O [TC14003, H-Arg-Arg-Nal-Cys-Tyr-Cit-Lys-DLys-Pro-Tyr-Arg-Cit-Cys-Arg-OH] (H-RR[2Nal]CY[Cit]K[dK]PYR[Cit]CR-OH; disulfide 4-13)",,,>29000,,160000,> 80 µM,310 µM,,,cytotoxicity is markedly lowered
"NCCCC[C@H]1NC(=O)[C@H](CCCNC(N)=O)NC(=O)[C@H](CCCN=C(N)N)NC(=O)[C@H](Cc2ccc(O)cc2)NC(=O)[C@@H](NC(=O)[C@H](Cc2ccc3ccccc3c2)NC(=O)[C@H](CCCN=C(N)N)NC(=O)[C@@H](N)CCCN=C(N)N)CSSC[C@@H](C(=O)N[C@@H](CCCN=C(N)N)C(=O)O)NC(=O)[C@H](CCCNC(N)=O)NC(=O)[C@H](CCCN=C(N)N)NC(=O)[C@H](Cc2ccc(O)cc2)NC(=O)[C@@H]2CCCN2C1=O [TC14004, H-Arg-Arg-Nal-Cys-Tyr-Arg-Cit-DLys-Pro-Tyr-Arg-Cit-Cys-Arg-OH] (H-RR[2Nal]CYR[Cit][dK]PYR[Cit]CR-OH; disulfide 4-13)",,,>5000,,16000,> 80 µM,270 µM,,,
"C[C@H](N)C(=O)N[C@@H](CCCNC(=N)N)C(=O)N[C@@H](Cc1ccc2ccccc2c1)C(=O)N[C@H]1CSSC[C@@H](C(=O)N[C@@H](CCCNC(=N)N)C(=O)O)NC(=O)[C@H](CCCNC(N)=O)NC(=O)[C@H](CCCNC(=N)N)NC(=O)[C@H](Cc2ccc(O)cc2)NC(=O)[C@@H]2CCCN2C(=O)[C@@H](CCCCN)NC(=O)[C@H](CCCCN)NC(=O)[C@H](CCCNC(=N)N)NC(=O)[C@H](Cc2ccc(O)cc2)NC1=O [TA14001, H-Arg-Arg-Nal-Cys-Tyr-Arg-Lys-DLys-Pro-Tyr-Arg-Cit-Cys-Arg-OH] (H-AR[2Nal]CYRK[dK]PYR[Cit]CR-OH; disulfide 4-13)",,,>750,,,> 40 µM,,0.056 µM,,
